# Source: patent US12612354B2, “Cyclopentenones derivatives and their use as antibiotics” (Centre National de la Recherche Scientifique (CNRS), priority 2020, dated 2026)
# Test system: Acinetobacter baumannii ATCC 19606
# Assay: Kirby-Bauer disk diffusion susceptibility test (inhibition zone)
# Type: cell-based
# Settings: 12.5, 25, 50 and 100 μg per disc, FIG. 3
# Protocol: FIG. 3: Kirby-Bauer Disk diffusion susceptibility test on Acinetobacter baumanii ATCC 19606 with compounds Ib and Ic at 12.5, 25, 50 and 100 μg and the reference gentamicin at 10 μg; left: graph representing the diameter of the inhibition zone as a function of each sample; right: photo of the petri dish illustrating the inhibition zones with Ib and Ic at 12.5, 25, 50 and 100 μg.
# (§1) Pathogenic bacteria were revived by streaking bacteria on 100 mm Petri dishes containing the suitable medium recommended by ATCC protocol, overnight at 30 to 37° C.: Luria-Bertani Broth (LB, Difco, Thermo Fisher Scientific Inc.), Tryptic Soy Broth (TSB, Difco, Thermo Fisher Scientific Inc.), Nutrient Broth (NB, Difco, Thermo Fisher Scientific Inc.), supplemented with 2% of agar (Granulated Agar, Difco, Thermo Fisher Scientific Inc.).
# (§2) For each pathogen, several colonies were collected with a loop and transferred in 5 ml of sterile NB medium and incubated on a rotary shaker (130 rpm) overnight at 30 to 37° C.
# (§3) 150 mm Nutrient Broth Agar plates were swabbed with inocula and kept for 15 min for absorption. Pre-sterilized six-millimeter Whatman No. 1 discs were placed in the Petri dishes and 12.5, 25, 50 and 100 μg of the test compounds in DMSO (10 mg/ml) were applied to the sterile disc papers. […] Then the plates were incubated at 30° or 37° C. for 24 h and inhibition diameters were measured. […]
row,Compound,inhibition activity (inhibition zone)
1,O=C1C=C[C@H](O)[C@H]1c1ccccc1Cl (racemic) [Ic],inhibition activity
2,O=C1C=C[C@H](O)[C@H]1c1ccc(Cl)cc1 (racemic) [Ib],inhibition activity

# Test system: Staphylococcus aureus ATCC 25923
# Assay: as above
# Type: cell-based
# Settings: S. aureus ATCC 25923; 12.5, 25, 50 and 100 μg per disc; FIG. 1
# Protocol: FIG. 1: Kirby-Bauer Disk diffusion susceptibility test on Staphylococcus aureus ATCC 25923 with compounds Ia, Ib and Ic at 12.5, 25, 50 and 100 μg and the reference gentamicin at 10 μg; left: graph representing the diameter of the inhibition zone as a function of each sample; right: photo of the petri dish illustrating the inhibition zones with Ic at 12.5, 25, 50 and 100 μg.
# as §1, §2
# (§4) 150 mm Nutrient Broth Agar plates were swabbed with inocula and kept for 15 min for absorption. Pre-sterilized six-millimeter Whatman No. 1 discs were placed in the Petri dishes and 12.5, 25, 50 and 100 μg of the test compounds in DMSO (10 mg/ml) were applied to the sterile disc papers. The standard drug gentamycin (10 μg) was used as a positive reference standard to determine the sensitivity of each bacterial species and DMSO as a negative control. Then the plates were incubated at 30° or 37° C. for 24 h and inhibition diameters were measured.
# Compounds Ia to Ic have also been tested on the following pathogenic bacteria in order to evaluate their inhibition efficacy by the Petri dish inhibition zone method: • Staphylococcus aureus ATCC 25923—Gram-positive (compounds Ia, Ib and Ic tested) • Enterobacter cloacae ATCC 13047—Gram-negative (compounds Ia and Ib tested) • Acinetobacter baumannii ATCC 19606—Gram-negative (compounds Ib and Ic tested) • Escherichia coli ATCC 25922—Gram-negative (compounds Ia and Ib tested) […]
row,Compound,inhibition activity (inhibition zone)
1,O=C1C=C[C@H](O)[C@H]1c1ccccc1Cl (racemic) [Ic],inhibition activity
2,"O=C1C=C[C@H](O)[C@H]1c1ccccc1 (relative stereo) [Ia, (4S*,5R*)-4-hydroxy-5-phenyl-cyclopent-2-en-1-one]",inhibition activity
3,O=C1C=C[C@H](O)[C@H]1c1ccc(Cl)cc1 (racemic) [Ib],inhibition activity

# Test system: Staphylococcus aureus BAA-1766 (MRSA)
# Assay: Minimum inhibitory concentration (MIC), microbroth dilution assay
# Type: cell-based
# Settings: S. aureus BAA-1766 (MRSA), Mueller-Hinton broth
# Protocol: (§5) Pathogenic bacteria were revived by streaking bacteria on 100 mm Petri dishes containing the suitable medium recommended by ATCC protocol, overnight at 30 to 37° C.: Luria-Bertani Broth (LB, Difco, Thermo Fisher Scientific Inc.), Tryptic Soy Broth (TSB, Difco, Thermo Fisher Scientific Inc.), Nutrient Broth (NB, Difco, Thermo Fisher Scientific Inc.), supplemented with 2% of agar (Granulated Agar, Difco, Thermo Fisher Scientific Inc.)
# (§6) For each pathogen, several colonies were collected with a loop and transfered in 10 ml of sterile Mueller-Hinton broth (Sigma) medium and incubated on a rotary shaker (130 rpm) […] at 30 to 37° C. The OD at 600 nm was measured and adjusted to 0.5 OD, then the solution was diluted 400-fold to have the appropriate inoculum
# (§7) The antimicrobial susceptibility was carried out by microbroth dilution assay. Tests were performed on 96-well plates with 100 μL of Mueller-Hinton broth (Sigma) medium final volume and a final bacterial concentration of 5.10^5 CUF/ml. The tested compounds were solubilized in dimethyl sulfoxide (DMSO) given 10 mg/mL (then expressed in μM) stock solution. The stock solutions were diluted from 100 μg/ml to 0.195 μg/ml for testing.
# (§8) Compounds Ia to Ie have also been tested on Staphylococcus aureus ATCC 25923 strain and Staphylococcus aureus BAA-1766 (MRSA) strain (both Gram-positive) by using the screening method of the measurement of MIC (minimum inhibitory concentration).
# (§9) This technique enables to determine the minimum concentration that causes total inhibition of the growth of the target pathogen.
row,Compound,MIC [µg/mL]
1,O=C1C=C[C@H](O)[C@H]1c1ccccc1Cl (racemic) [Ic],37.5
2,"O=C1C=C[C@H](O)[C@H]1c1ccccc1 (relative stereo) [Ia, (4S*,5R*)-4-hydroxy-5-phenyl-cyclopent-2-en-1-one]",> 50
3,O=C1C=C[C@@](O)(CO)[C@H]1c1ccc(Cl)cc1 (racemic) [Id],12
4,O=C1C=C[C@H](O)[C@H]1c1ccc(Cl)cc1 (racemic) [Ib],18.8
5,CC(=O)O[C@H]1C=CC(=O)[C@@H]1c1ccccc1 (racemic) [Ie],6.25

# Test system: Staphylococcus aureus ATCC 25923
# Assay: as above
# Type: cell-based
# Settings: S. aureus ATCC 25923; Mueller-Hinton broth
# Protocol: as §5, §6, §7, §8, §9
row,Compound,MIC [µg/mL]
1,O=C1C=C[C@H](O)[C@H]1c1ccccc1Cl (racemic) [Ic],6.26

# Same assay, conditions: Staphylococcus aureus, ATCC25923, S. aureus ATCC 25923; Mueller-Hinton broth; read-out: MIC
row,Compound,MIC [µg/mL]
1,O=C1C=C[C@H](O)[C@H]1c1ccccc1Cl (racemic) [Ic],6.25
2,"O=C1C=C[C@H](O)[C@H]1c1ccccc1 (relative stereo) [Ia, (4S*,5R*)-4-hydroxy-5-phenyl-cyclopent-2-en-1-one]",25
3,O=C1C=C[C@@](O)(CO)[C@H]1c1ccc(Cl)cc1 (racemic) [Id],12
4,O=C1C=C[C@H](O)[C@H]1c1ccc(Cl)cc1 (racemic) [Ib],12.5
5,CC(=O)O[C@H]1C=CC(=O)[C@@H]1c1ccccc1 (racemic) [Ie],6.25

# Test system: Micrococcus luteus ATCC10240
# Assay: Petri dish inhibition zone method, % inhibition of growth
# Type: cell-based
# Settings: 24 h, 100 μg of compound
# Protocol: (§10) Pathogenic bacteria were revived by streaking bacteria on 100 mm Petri dishes containing the suitable medium recommended by ATCC protocol, overnight at 30 to 37° C.: Luria-Bertani Broth (LB, Difco, Thermo Fisher Scientific Inc.), Tryptic Soy Broth (TSB, Difco, Thermo Fisher Scientific Inc.), Nutrient Broth (NB, Difco, Thermo Fisher Scientific Inc.), supplemented with 2% of agar (Granulated Agar, Difco, Thermo Fisher Scientific Inc.). For each pathogen, several colonies were collected with a loop and transferred in 5 ml of sterile NB medium and incubated on a rotary shaker (130 rpm) overnight at 30 to 37° C. 150 mm Nutrient Broth Agar plates were swabbed with inocula and kept for 15 min for absorption. Pre-sterilized six-millimeter Whatman No. 1 discs were placed in the Petri dishes and 12.5, 25, 50 and 100 μg of the test compounds in DMSO (10 mg/ml) were applied to the sterile disc papers. The standard drug gentamycin (10 μg) was used as a positive reference standard to determine the sensitivity of each bacterial species and DMSO as a negative control. Then the plates were incubated at 30° or 37° C. for 24 h and inhibition diameters were measured. Compounds Ib, Ic, Ij, Ik, Il, Im, Ih, Ig, Ii, Id and If have also been tested on the following pathogenic bacteria in order to evaluate their inhibition efficacy by the Petri dish inhibition zone method: • Micrococcus luteus ATCC10240; • Bacillus subtilis ATCC6633; • Escherichia coli ATCC 25922. The percentage of inhibition growth at 100 μg of each tested compound has been determined.
row,Compound,inhibition of growth at 100 µg/disc [%]
1,O=C1C=C[C@H](O)[C@H]1c1ccccc1Cl (racemic) [Ic],33
2,COc1ccc(C2C(=O)C=C[C@@H]2O)cc1 (mixture of isomers) [Ij],39
3,O=C1C=C[C@@](O)(CO)[C@H]1c1ccc(Cl)cc1 (racemic) [Id],0
4,O=C1C=C[C@H](O)[C@H]1c1ccc(Cl)cc1 (racemic) [Ib],68

# Test system: Bacillus subtilis ATCC6633
# Assay: as above
# Type: cell-based
# Settings: 24 h, 100 μg of compound
# Protocol: as §10
row,Compound,inhibition of growth at 100 µg/disc [%]
1,O=C1C=C[C@H](O)[C@H]1c1ccccc1Cl (racemic) [Ic],31
2,COc1ccc(C2C(=O)C=C[C@@H]2O)cc1 (mixture of isomers) [Ij],61
3,O=C1C=C[C@@](O)(CO)[C@H]1c1ccc(Cl)cc1 (racemic) [Id],30
4,O=C1C=C[C@H](O)[C@H]1c1ccc(Cl)cc1 (racemic) [Ib],51

# Test system: Escherichia coli ATCC 25922
# Assay: Kirby-Bauer disk diffusion susceptibility test (inhibition zone)
# Type: cell-based
# Settings: 12.5, 25, 50 and 100 μg per disc, FIG. 4
# Protocol: FIG. 4: Kirby-Bauer Disk diffusion susceptibility test on Escherichia coli ATCC 25922 with compounds Ia and Ib at 12.5, 25, 50 and 100 μg and the reference gentamicin at 10 μg; left: graph representing the diameter of the inhibition zone as a function of each sample; right: photo of the petri dish illustrating the inhibition zones with Ia at 12.5, 25, 50 and 100 μg.
# as §1, §2, §4
# Compounds Ia to Ic have also been tested on the following pathogenic bacteria in order to evaluate their inhibition efficacy by the Petri dish inhibition zone method: • Staphylococcus aureus ATCC 25923—Gram-positive (compounds Ia, Ib and Ic tested) • Enterobacter cloacae ATCC 13047—Gram-negative (compounds Ia and Ib tested) • Acinetobacter baumannii ATCC 19606—Gram-negative (compounds Ib and Ic tested) • Escherichia coli ATCC 25922—Gram-negative (compounds Ia and Ib tested)
# This technique enables to visualize the potential for inhibiting the growth of target pathogenic bacteria. A dose-response study at 12.5, 25, 50 and 100 μg of each compound has been carried out, comparing the inhibition zones with 10 μg gentamicin. […] Best results are obtained for Gran negative bacteria, especially Enterobacter cloacae as represented on FIG. 2.
# Compounds Ib, Ic, Ij, Ik, Il, Im, Ih, Ig, Ii, Id and If have also been tested on the following pathogenic bacteria in order to evaluate their inhibition efficacy by the Petri dish inhibition zone method: • Micrococcus luteus ATCC10240; • Bacillus subtilis ATCC6633; • Escherichia coli ATCC 25922.
# The percentage of inhibition growth at 100 μg of each tested compound has been determined.
row,Compound,inhibition activity (inhibition zone)
1,"O=C1C=C[C@H](O)[C@H]1c1ccccc1 (relative stereo) [Ia, (4S*,5R*)-4-hydroxy-5-phenyl-cyclopent-2-en-1-one]",inhibition activity
2,O=C1C=C[C@H](O)[C@H]1c1ccc(Cl)cc1 (racemic) [Ib],inhibition activity

# Same assay, conditions: ATCC25922, 24 h, 100 μg of compound
row,Compound,inhibition of growth at 100 µg/disc [%]
1,O=C1C=C[C@H](O)[C@H]1c1ccccc1Cl (racemic) [Ic],35
2,COc1ccc(C2C(=O)C=C[C@@H]2O)cc1 (mixture of isomers) [Ij],62
3,O=C1C=C[C@@](O)(CO)[C@H]1c1ccc(Cl)cc1 (racemic) [Id],45
4,O=C1C=C[C@H](O)[C@H]1c1ccc(Cl)cc1 (racemic) [Ib],60

# Test system: Enterobacter cloacae ATCC 13047
# Assay: as above
# Type: cell-based
# Settings: 12.5, 25, 50 and 100 μg per disc, FIG. 2
# Protocol: FIG. 2: Kirby-Bauer Disk diffusion susceptibility test on Enterobacter cloacae ATCC 13047 with compounds Ia and Ib at 12.5, 25, 50 and 100 μg and the reference gentamicin at 10 μg; left: graph representing the diameter of the inhibition zone as a function of each sample; right: photo of the petri dish illustrating the inhibition zones with Ia at 12.5, 25, 50 and 100 μg.
# as §1, §2, §3
row,Compound,inhibition activity (inhibition zone)
1,"O=C1C=C[C@H](O)[C@H]1c1ccccc1 (relative stereo) [Ia, (4S*,5R*)-4-hydroxy-5-phenyl-cyclopent-2-en-1-one]",inhibition activity
2,O=C1C=C[C@H](O)[C@H]1c1ccc(Cl)cc1 (racemic) [Ib],inhibition activity
